Test results taken from patent publication US6531505B2, “Immunosuppressive agents” (priority 1998, dated 2003).
“Also recorded” adds a separate entry of the source.

Key:
[1] = tested on: CCl4-induced liver injury in mice; experiment: Hepatoprotection studies on CCl4-induced liver injury in mice; assay type: in vivo, ICR male mice; conditions: for ALT / AST: serum, 20 hours after CCl4
Method: ICR male mice (8 mice for each group) were used. Astilbin (50 or 100 mg/kg) and RSG ext (100 or 200 mg/kg) were administered orally for 6 days. One hour after final administration, mice were intraperitoneally injected with 0.2% CCl4 in olive oil (0.2 ml/20 g of body weight).
For the control studies, only CCl4 injected mice without drug administration were used.
Then, 20 hours after administration of CCl4, the blood samples were collected, and used for determining the serum ALT and the serum AST activities by the conventional methods.

[2] = tested on: HC isolated from normal mice, treated with CCl4; experiment: Hepatoprotection studies on CCl4-induced hepatocyte damage; assay type: cell-based; conditions: 5×10^−6 to 1×10^−4 g/ml, HC treated 2 hours, then 0.2% CCl4 1 hour
Method: HC was isolated from the normal mice used in Experiment 8 above. The cells were treated for 2 hours with astilbin or RSG ext, then washed twice with WE medium solution. After washing, 0.1 ml of 0.2% CCl4 in olive oil was added to the cells, and the resulting cells were incubated for 1 hour. The ALT activity in the supernatants was determined by the conventional methods.
HC isolated from the normal mice was used. The cells were treated for 2 hours with test compounds. After treatment, the cells were washed twice, and incubated for 1 hour after addition of 0.1 ml of 0.2% CCl4. The obtained supernatants were collected for assaying the ALT activity by the conventional methods. For the control studies, non-treated HC with test compounds were used.

[3] = tested on: adherent cells isolated from NPC; experiment: Apoptosis measurement No. 1, counting of apoptotic cells (Hoechst 33342); assay type: cell-based, mice; conditions: 5×10^−5 g/ml, 1 hour, 37° C., FIG. 1
Method: (§1) Additionally, a part of NPC was incubated on the culture plate for 3 hours in order to separate adherent cells from non-adherent cells. […] HC and NPC isolated from liver injury mice 12 hours after elicitation, and fraction of adherent cells and non-adherent cells isolated from NPC were used. These cells were incubated with 5×10^−5 g/ml of astilbin and RSG ext, as the testing compounds, in RPMI 1640 medium at 37° C. for 1 hour, respectively. After incubation, the cells were stained with Hoechst 33342 (Molecular Probes, Inc., USA) for 1 minute at room temperature. After washed three times with RPMI 1640 medium, the obtained cells were fixed with 2% formaldehyde in phosphate buffer solution (PBS). The apoptotic cells among the total population were determined by counting a total of 200 cells in five different fields under fluorescent microscope. For the control studies, the cells treated without test compounds were incubated and followed by the same manner.

[4] = tested on: non-adherent cells isolated from NPC; experiment: as above; assay type: cell-based, mice; conditions: 5×10^−5 g/ml, 1 hour, 37° C., FIG. 1
Method: as §1

[5] = tested on: total NPC isolated from liver injury mice; experiment: as above; assay type: cell-based; conditions: 5×10^−5 g/ml, 1 hour, 37° C., NPC from liver injury mice 12 hours after elicitation, FIG. 1
Method: HC and NPC isolated from liver injury mice 12 hours after elicitation, and fraction of adherent cells and non-adherent cells isolated from NPC were used. These cells were incubated with 5×10^−5 g/ml of astilbin and RSG ext, as the testing compounds, in RPMI 1640 medium at 37° C. for 1 hour, respectively. After incubation, the cells were stained with Hoechst 33342 (Molecular Probes, Inc., USA) for 1 minute at room temperature. After washed three times with RPMI 1640 medium, the obtained cells were fixed with 2% formaldehyde in phosphate buffer solution (PBS). The apoptotic cells among the total population were determined by counting a total of 200 cells in five different fields under fluorescent microscope. For the control studies, the cells treated without test compounds were incubated and followed by the same manner.

[6] = tested on: NPC isolated from liver injury mice; experiment: ALT-releasing assay, co-culture of HC with pre-treated NPC; assay type: cell-based; conditions: for ALT activity in supernatants of HC co-cultured with pre-treated NPC: Example 5 Experiment 2, NPC incubated with test compound 1 hour, co-culture 3 hours, FIG. 6
Method: HC and NPC were isolated from mice 12 hours after elicitation of liver injury. Thus obtained HC was suspended in WE medium, and was seeded onto 96-wells microplates (2×10^4 cells/0.2 ml/wells), and incubated at 37° C. for 5 hours with 5% (v/v) CO2 in air. After incubation, the HC was washed twice with WE medium and co-cultured with NPC of 8×10^4 cells for 3 hours. NPC was pre-incubated for 1 hour at 37° C. with various concentration of astilbin or RSG ext. After co-culture, the supernatants were collected for assaying ALT and AST activities by the conventional methods.
HC and NPC were isolated from liver injury mice 12 hours after elicitation, as the same manner described in Experiment 4. Thus the HC was suspended in WE medium, and was seeded onto 96-wells microplates (2×10^4 cells/0.2 ml/wells), and incubated at 37° C. for 5 hours with 5% (v/v) CO2 in air. After incubation, the HC was washed twice with WE medium and co-cultured with NPC of 8×10^4 cells, which were pre-treated with 5×10^−5 g/ml of astilbin or RSG ext for 5, 15, 30, 60 and 120 minutes respectively, at 37° C. for 3 hours. After co-culture, the supernatants were collected for assaying the ALT activity by the conventional methods.
HC (2×10^4 cells/0.2 ml/wells in WE medium) were seeded onto 96-well microplates and incubated at 37° C. with 5% (v/v) CO2 in air.
On the other hand, NPC was incubated in the medium with or without test compounds for 1 hour. The test compounds were smitilbin of the formula (I-a), astilbin of the formula (I-b), engeletin of the formula (I-c), and eucryphin of formula (I-d), respectively.
After 5 hours of the incubation, each monolayers of HC were washed twice with the medium, and then 8×10^4 cells of NPC, pre-treated with or without above test compounds, were added. After 3 hours of further incubation, the supernatants were collected and used for assaying the ALT activity by the conventional methods.

[7] = tested on: mice with liver injury induced by delayed-type hypersensitivity (DTH) reaction; experiment: Studies for drug administration time (induction phase and effector phase); assay type: in vivo; conditions: for histopathological examination of liver (inflammatory infiltration, hepatocellular coagulation necrosis): 18 hours after injection of picryl chloride into liver; for serum ALT activity: FIG. 5
Method: The liver injury was induced by the same manner as described in Experiment 1. To determine the effects of astilbin and RSG ext on the induction phase (during sensitization) and effector phase (after elicitation of liver injury), astilbin (50 and 100 mg/kg) and RSG ext (100 and 200 mg/kg) were administered orally to the mice for once a day after 10 days from the 1st sensitization, and for 3 times at 0, 5 and 10 hours after elicitation, respectively.
For the control studies, mice without drug administration were used, and for the positive control studies, 10 mg/kg cyclophosphamide (Cy) was administered percutaneously to the mice.
18 hours after the injection of picryl chloride into liver, the blood samples were collected for determining the serum ALT activity by the conventional methods. Histopathological examination of liver was also performed.

[8] = tested on: NPC and spleen cells isolated from normal mice; experiment: Apoptosis measurement No. 2, DNA fragmentation assay (gel agarose electrophoresis); assay type: cell-based; conditions: 5×10^−5 g/ml, 1 hour
[9] = tested on: HC isolated from liver injury mice; experiment: ALT-releasing assay, co-culture of NPC with pre-treated HC; assay type: cell-based; conditions: HC pre-treated with high concentration for more than 2 hours
Method: HC in WE medium was incubated with or without test compounds for 1 hour. Then, the HC was seeded onto 96-well microplates (2×10^4 cells/0.2 ml/wells) and incubated at 37° C. with 5% (v/v) CO2 in air for 5 hours. After 5 hours, HC monolayers were washed twice with the medium, and then 8×10^4 cells of NPC were added. […] The test compounds were the same ones as described in Experiment 2, above.

[10] = tested on: NPC isolated from liver injury mice; experiment: Apoptosis measurement No. 2, DNA fragmentation assay (gel agarose electrophoresis); assay type: cell-based; conditions: 5×10^−5 g/ml, 1 hour, NPC from liver injury mice 12 hours after elicitation
[11] = dose 50 mg/kg orally for 6 days
[12] = dose 100 mg/kg orally for 6 days
[13] = NPC pre-incubated 1 hour with various concentrations, co-culture with HC 3 hours, FIG. 2

COC(=O)c1cc(OC)c2c(c1-c1c(C(=O)OC)cc(OC)c3c1OCO3)OCO2 [BDD, biphenyl dimethyl dicarboxylate, reference compound]
ALT elevation ([1]; 150 mg/kg orally, positive control): significantly decreased | ALT ([1]; dose 150 mg/kg orally): 510.7 ± 27.0 Karmen unit | AST ([1]; dose 150 mg/kg orally): 675.6 ± 80.9 Karmen unit

C[C@@H]1O[C@@H](O[C@H]2C(=O)c3c(O)cc(O)cc3O[C@@H]2c2ccc(O)c(O)c2)[C@H](O)[C@H](O)[C@H]1O [astilbin]
ALT release from HC treated with CCl4 [2]: None of the test compounds | ALT release from HC treated with CCl4 ([2]; listed as Astilbin): did not affect | effect on elevation of ALT and AST activities ([1]; astilbin 50 or 100 mg/kg, RSG ext 100 or 200 mg/kg orally for 6 days before CCl4): no effect | ALT [1, 11]: 901.6 ± 36.1 Karmen unit | AST [1, 11]: 670.4 ± 21.2 Karmen unit | ALT [1, 12]: 921.5 ± 40.2 Karmen unit | AST [1, 12]: 688.2 ± 45.6 Karmen unit | ratio of apoptotic cells in the fraction of adherent cells of NPC [3]: no influence | ratio of apoptotic cells in non-adherent fraction isolated from NPC [4]: increased | ratio of apoptotic cells in total NPC [5]: significantly increased | ALT release ([6]; 5×10^−5 g/ml, NPC pre-incubated 1 hour, co-culture with HC 3 hours): complete inhibition | ALT releasing ([6]; 5×10^−5 g/ml, pre-treatment of NPC for more than 30 minutes): completely inhibited | ALT activity in supernatants of HC co-cultured with pre-treated NPC [6]: dose-dependently inhibited | ALT releasing activity of NPC [6, 13]: dose-dependently inhibited; also recorded: stronger activity than RSG ext | AST releasing activity of NPC [6, 13]: dose-dependently inhibited | releasing of ALT from HC ([6]; NPC pre-treated with 5×10^−5 g/ml for 5, 15, 30, 60 and 120 minutes, FIG. 3): inhibited time-dependently | histopathological examination of liver (inflammatory infiltration, hepatocellular coagulation necrosis) [7]: improvement of liver injury | serum ALT activity ([7]; high dose (astilbin 100 mg/kg, RSG ext 200 mg/kg) orally in effector phase, 3 times at 0, 5 and 10 hours after elicitation, blood 18 hours after): significant decrease | serum ALT activity ([7]; low dose (astilbin 50 mg/kg, RSG ext 100 mg/kg) orally in effector phase): tendency of decreasing | DNA ladder pattern (DNA fragmentation) [8]: no DNA ladder' pattern appeared | ALT releasing [9]: not changed | DNA ladder pattern (DNA fragmentation) [10]: DNA ladder' pattern appeared

O=P1(N(CCCl)CCCl)NCCCO1 (stereo not drawn) [cyclophosphamide, reference compound]
serum ALT activity ([7]; 10 mg/kg, given in both induction and effector phases, positive control): significant decrease | histopathological examination of liver (inflammatory infiltration, hepatocellular coagulation necrosis) [7]: improvement of liver injury

C[C@@H]1O[C@@H](O[C@H]2C(=O)c3c(O)cc(O)cc3O[C@@H]2c2ccc(O)cc2)[C@H](O)[C@H](O)[C@H]1O [engeletin]
ALT release from HC treated with CCl4 [2]: None of the test compounds | ALT activity in supernatants of HC co-cultured with pre-treated NPC [6]: dose-dependently inhibited

C[C@@H]1O[C@@H](Oc2coc3cc(O)cc(O)c3c2=O)[C@H](O)[C@H](O)[C@H]1O [eucryphin]
ALT release from HC treated with CCl4 [2]: None of the test compounds | ALT activity in supernatants of HC co-cultured with pre-treated NPC [6]: much stronger inhibitory effect

C[C@@H]1O[C@@H](O[C@@H]2C(=O)c3c(O)cc(O)cc3OC2c2cc(O)cc(O)c2)[C@H](O)[C@H](O)[C@H]1O (stereo partly drawn) [smitilbin]
ALT release from HC treated with CCl4 [2]: None of the test compounds | ALT activity in supernatants of HC co-cultured with pre-treated NPC [6]: dose-dependently inhibited
